Data on two compounds can be found in patent US4536592A, “2-Substituted prostaglandins” (G. D. Searle & Co., priority 1984, dated 1985).

A value given as a limit tells only on which side of the number the result lay.

This series is described as follows: Diarrheogenic activity test (rat, intragastric, all or none diarrhea assessment). Format: in vivo, Charles River rats. Conditions: doses 100 to 3000 microgram/kg. Here is the method:
Diarrhea is an undesirable side effect commonly associated with prostaglandins.
Groups of six adult male Charles River rats, weight range 180 to 200 grams are fasted for 24 hours prior to administering the test substance. The prostaglandin to be tested is administered intragastrically in iso-osmotic phosphate buffer at a volume of 10 ml/kg at doses ranging from 100 to 3000 microgram/kg. Control animals receive only the vehicle. The rats are placed in individual wire mesh cages and the trays lined with brown paper. Diarrhea is assessed at hourly intervals on an all or none basis for up to eight hours after administration of the prostaglandin. Diarrhea is defined as any loose or watery stool. ED50 value is assessed for each hourly diarrheogenic response.

On to `CCCCC(C)(O)C/C=C/[C@H]1[C@H](O)CC(=O)[C@@H]1CCCCCCC(=O)OC` (relative stereo) [Compound I], for which, under “in vivo, po, read-out: Rat 8 hour Diarrheogenic ED50”, the TD50 at 8 h was 0.366 mg/kg.

`CCCCC(C)(O)C/C=C/[C@H]1[C@H](O)CC(=O)[C@@H]1CCCCCC(C)C(=O)OC` (relative stereo) [Compound II]: the “Rat 8 hour Diarrheogenic ED50” value is greater than 3.2 mg/kg.
